Source: US10179790B2 (THOMAS HELLEDAYS STIFTELSE FOR MEDICINSK FORSKNING, priority 2014, dated 2019)
pIC50: −log10 of the molar value.

Experiments:
MTH1 = MTH1 (Homo sapiens, UniProt P36639); test: MTH1 enzymatic assay and IC50 value determination (malachite green, 96- and 384-well format); format: biochemical; details: hydrolysis of dGTP (100 μM), MTH1 6 nM, pyrophosphatase-coupled malachite green, 15 minutes at 22° C.
Outline: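 MTH1 (6 nM) hydrolysed dGTP (100 μM) for 15 min at 22 °C in Tris-acetate buffer with Mg2+, DTT, Tween 20 and excess pyrophosphatase, 1% DMSO. Pi detected with malachite green at 630 nm. IC50 from nonlinear 4-parameter fit of 11–12-point dilution series.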

cancer cell = test: Cell viability assay (resazurin); format: cell-based; details: 72 h; 3 days with compound, resazurin fluorescence; cell line not named
Outline: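 Cells in DMEM GlutaMAX or line-appropriate medium are exposed to compound for 3 days at 37 °C, 5% CO2. Viability is read as resazurin fluorescence (Ex544/Em590) after 2 h incubation. In the 384-well format, cells are seeded onto 11 pre-dispensed concentrations (final DMSO <1%) and read after 3 h resazurin.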

Structure (SMILES): Cc1c(Cl)cccc1-c1cc(NCCSc2ccc(S(N)(=O)=O)cn2)nc(N)n1 [Example 180, 6-[2-[[2-amino-6-(3-chloro-2-methyl-phenyl)pyrimidin-4-yl]amino]ethylsulfanyl]pyridine-3-sulfonamide]
- pIC50 (MTH1): > 6.70
- pIC50 (cancer cell): > 6.30

Structure (SMILES): COC(=O)c1ccc(CSCCNc2cc(-c3cccc(Cl)c3C)nc(N)n2)cc1 [Example 181, methyl 4-[2-[[2-amino-6-(3-chloro-2-methyl-phenyl)pyrimidin-4-yl]amino]ethylsulfanylmethyl]benzoate]
- pIC50 (MTH1): > 6.70
- pIC50 (cancer cell): > 6.30

Structure (SMILES): COC(=O)c1ccc(CCNc2cc(-c3cccc(Cl)c3C)nc(N)n2)cc1 [Example 182, methyl 4-[2-[[2-amino-6-(3-chloro-2-methyl-phenyl)pyrimidin-4-yl]amino]ethyl]benzoate]
- pIC50 (MTH1): > 6.70
- pIC50 (cancer cell): > 6.30

Structure (SMILES): CCOC(=O)c1ccc(CCNc2cc(-c3cccc(Cl)c3C)nc(N)n2)cc1 [Example 183, ethyl 4-[2-[[2-amino-6-(3-chloro-2-methyl-phenyl)pyrimidin-4-yl]amino]ethyl]benzoate]
- pIC50 (MTH1): > 6.70
- pIC50 (cancer cell): > 6.30

Structure (SMILES): CCCOC(=O)c1ccc(CCNc2cc(-c3cccc(Cl)c3C)nc(N)n2)cc1 [Example 184, propyl 4-[2-[[2-amino-6-(3-chloro-2-methyl-phenyl)pyrimidin-4-yl]amino]ethyl]benzoate]
- pIC50 (MTH1): > 6.70
- pIC50 (cancer cell): > 6.30

Structure (SMILES): Cc1c(Cl)cccc1-c1cc(NCCc2ccc(C(=O)OCCO)cc2)nc(N)n1 [Example 185, 2-hydroxyethyl 4-[2-[[2-amino-6-(3-chloro-2-methyl-phenyl)pyrimidin-4-yl]amino]ethyl]benzoate]
- pIC50 (MTH1): > 6.70
- pIC50 (cancer cell): > 6.30

Structure (SMILES): Cc1c(Cl)cccc1-c1cc(NCCc2ccc(C(=O)OCCS(C)(=O)=O)cc2)nc(N)n1 [Example 186, 2-methylsulfonylethyl 4-[2-[[2-amino-6-(3-chloro-2-methyl-phenyl)pyrimidin-4-yl]amino]ethyl]benzoate]
- pIC50 (MTH1): > 6.70
- pIC50 (cancer cell): > 6.30

Structure (SMILES): Cc1c(Cl)cccc1-c1cc(NCCc2ccc(C(=O)OCC(O)CO)cc2)nc(N)n1 (stereo not shown) [Example 187, 2,3-dihydroxypropyl 4-[2-[[2-amino-6-(3-chloro-2-methyl-phenyl)pyrimidin-4-yl]amino]ethyl]benzoate]
- pIC50 (MTH1): > 6.70
- pIC50 (cancer cell): > 6.30

Structure (SMILES): Cc1c(Cl)cccc1-c1cc(NCCNc2ccc(S(C)(=O)=O)nc2)nc(N)n1 [Example 188, 6-(3-chloro-2-methyl-phenyl)-N4-[2-[(6-methylsulfonyl-3-pyridyl)amino]ethyl]pyrimidine-2,4-diamine]
- pIC50 (MTH1): > 6.70
- pIC50 (cancer cell): > 6.30

Structure (SMILES): CC(=O)Nc1ccc(NCCNc2cc(-c3cccc(Cl)c3C)nc(N)n2)cc1C [Example 189, N-[4-[2-[[2-amino-6-(3-chloro-2-methyl-phenyl)pyrimidin-4-yl]amino]ethylamino]-2-methyl-phenyl]acetamide]
- pIC50 (MTH1): > 6.70
- pIC50 (cancer cell): > 6.30

Structure (SMILES): CCc1ccc(CCNc2cc(-c3cccc(Cl)c3C)nc(N)n2)cc1 [Example 191, 6-(3-chloro-2-methyl-phenyl)-N4-[2-(4-ethylphenyl)ethyl]pyrimidine-2,4-diamine]
- pIC50 (MTH1): > 6.70
- pIC50 (cancer cell): > 6.30

Structure (SMILES): Cc1c(Cl)cccc1-c1cc(NCCc2ccc(C(=O)NC(C)CO)cc2)nc(N)n1 (stereo not shown) [Example 194, 4-(2-{[2-amino-6-(3-chloro-2-methylphenyl)pyrimidin-4-yl]amino}ethyl)-N-(1-hydroxypropan-2-yl)benzamide]
- pIC50 (MTH1): > 6.70
- pIC50 (cancer cell): > 6.30

Structure (SMILES): Cc1c(Cl)cccc1-c1cc(NCCc2ccc(C(=O)N3CCN(C)CC3)cc2)nc(N)n1 [Example 195, 6-(3-chloro-2-methylphenyl)-4-N-{2-[4-(4-methylpiperazine-1-carbonyl)phenyl]ethyl}pyrimidine-2,4-diamine]
- pIC50 (MTH1): > 6.70
- pIC50 (cancer cell): > 6.30

Structure (SMILES): Cc1c(Cl)cccc1-c1cc(NCCc2ccc([S+](C)[O-])cc2)nc(N)n1 (stereo not shown) [Example 196, 6-(3-chloro-2-methylphenyl)-N4-[2-(4-methanesulfinylphenyl)ethyl]pyrimidine-2,4-diamine]
- pIC50 (MTH1): > 6.70
- pIC50 (cancer cell): > 6.30

Structure (SMILES): Cc1c(-c2cc(NCCc3ccc(S(C)(=O)=O)cc3)nc(N)n2)cccc1C(F)(F)F [Example 198, N4-[2-(4-methanesulfonylphenyl)ethyl]-6-[2-methyl-3-(trifluoromethyl)phenyl]pyrimidine-2,4-diamine]
- pIC50 (MTH1): > 6.70
- pIC50 (cancer cell): > 6.30

Structure (SMILES): Cc1c(Cl)cccc1-c1cc(NCCOc2nccc3occc23)nc(N)n1 [Example 200, 6-(3-chloro-2-methylphenyl)-N4-(2-{furo[3,2-c]pyridin-4-yloxy}ethyl)pyrimidine-2,4-diamine]
- pIC50 (MTH1): > 6.70
- pIC50 (cancer cell): > 6.30

Structure (SMILES): Cc1c(Cl)cccc1-c1cc(NCCOc2ccc(C(N)=O)cc2)nc(N)n1 [Example 201]
- pIC50 (MTH1): > 6.70
- pIC50 (cancer cell): > 6.30

Structure (SMILES): Cc1c(Cl)cccc1-c1cc(NCCOc2ccc(/C(N)=N/O)cc2)nc(N)n1 [Example 203, (Z)-4-(2-{[2-amino-6-(3-chloro-2-methylphenyl)pyrimidin-4-yl]amino}ethoxy)-N′-hydroxybenzene-1-carboximidamide]
- pIC50 (MTH1): > 6.70
- pIC50 (cancer cell): > 6.30

Structure (SMILES): Cc1c(Cl)cccc1-c1cc(NCCCOc2ccc(S(C)(=O)=O)cc2)nc(N)n1 [Example 204, 6-(3-chloro-2-methylphenyl)-N4-[3-(4-methanesulfonylphenoxy)propyl]pyrimidine-2,4-diamine]
- pIC50 (MTH1): > 6.70
- pIC50 (cancer cell): > 6.30

Structure (SMILES): Cc1c(Cl)cccc1-c1cc(NCCCOc2nccc(C(N)=O)n2)nc(N)n1 [Example 205, 2-(3-{[2-amino-6-(3-chloro-2-methylphenyl)pyrimidin-4-yl]amino}propoxy)pyrimidine-4-carboxamide]
- pIC50 (MTH1): > 6.70
- pIC50 (cancer cell): > 6.30

Structure (SMILES): Cc1c(Cl)cccc1-c1cc(NCCCOc2ccc(C(N)=O)cn2)nc(N)n1 [Example 206, 6-(3-{[2-amino-6-(3-chloro-2-methylphenyl)pyrimidin-4-yl]amino}propoxy)pyridine-3-carboxamide]
- pIC50 (MTH1): > 6.70
- pIC50 (cancer cell): > 6.30

Structure (SMILES): Cc1c(Cl)cccc1-c1cc(NCCc2ccc(S(=O)(=O)N3CCOCC3)cc2)nc(N)n1 [Example 207, 6-(3-chloro-2-methylphenyl)-N4-{2-[4-(morpholine-4-sulfonyl)phenyl]ethyl}pyrimidine-2,4-diamine]
- pIC50 (MTH1): > 6.70
- pIC50 (cancer cell): > 6.30

Structure (SMILES): COCCNS(=O)(=O)c1ccc(CCNc2cc(-c3cccc(Cl)c3C)nc(N)n2)cc1 [Example 208, 4-(2-{[2-amino-6-(3-chloro-2-methylphenyl)pyrimidin-4-yl]amino}ethyl)-N-(2-methoxyethyl)benzene-1-sulfonamide]
- pIC50 (MTH1): > 6.70
- pIC50 (cancer cell): > 6.30

Structure (SMILES): Cc1c(Cl)cccc1-c1cc(NCCc2ccc(S(=O)(=O)NC3COC3)cc2)nc(N)n1 [Example 209, 4-(2-{[2-amino-6-(3-chloro-2-methylphenyl)pyrimidin-4-yl]amino}ethyl)-N-(oxetan-3-yl)benzene-1-sulfonamide]
- pIC50 (MTH1): > 6.70
- pIC50 (cancer cell): > 6.30

Structure (SMILES): Cc1c(Cl)cccc1-c1cc(NCCc2ccc(S(=O)(=O)NC3CCOCC3)cc2)nc(N)n1 [Example 210, 4-(2-{[2-amino-6-(3-chloro-2-methylphenyl)pyrimidin-4-yl]amino}ethyl)-N-(oxan-4-yl)benzene-1-sulfonamide]
- pIC50 (MTH1): > 6.70
- pIC50 (cancer cell): > 6.30

Structure (SMILES): C#CCN(C)C(=O)c1ccc(CCNc2cc(-c3cccc(Cl)c3C)nc(N)n2)cc1 [Example 211, 4-(2-{[2-amino-6-(3-chloro-2-methylphenyl)pyrimidin-4-yl]amino}ethyl)-N-methyl-N-(prop-2-yn-1-yl)benzamide]
- pIC50 (MTH1): > 6.70
- pIC50 (cancer cell): > 6.30

Structure (SMILES): C#Cc1ccc(CCNc2cc(-c3cccc(Cl)c3C)nc(N)n2)cc1 [Example 212, 6-(3-chloro-2-methylphenyl)-N4-[2-(4-ethynylphenyl)ethyl]pyrimidine-2,4-diamine]
- pIC50 (MTH1): > 6.70
- pIC50 (cancer cell): > 6.30

Structure (SMILES): Cc1c(Cl)cccc1-c1cc(NCCOc2ccc(S(N)(=O)=O)cn2)nc(N)n1 [Example 213, 6-(2-(2-amino-6-(3-chloro-2-methylphenyl)pyrimidin-4-ylamino)ethoxy)pyridine-3-sulfonamide]
- pIC50 (MTH1): > 6.70
- pIC50 (cancer cell): > 6.30

Structure (SMILES): Cc1c(Cl)cccc1-c1cc(NCCOc2ccc(S(C)(=O)=O)cn2)nc(N)n1 [Example 214, 6-(3-Chloro-2-methylphenyl)-N4-(2-(5-(methylsulfonyl)pyridin-2-yloxy)ethyl)pyrimidine-2,4-diamine]
- pIC50 (MTH1): > 6.70
- pIC50 (cancer cell): > 6.30
